A word on the melting point: it is the temperature, or range, at which the solid turns liquid.

For the molecule `O=C(O)[C@@H]1CCCN1C(=O)CCc1cccc(-c2nc(=O)c3ccccc3s2)n1` [Example 313, 1-{3-[6-(4-Oxo-4H-1,3-benzothiazin-2-yl)-2-pyridyl]propanoyl}proline], the melting point was in the range of 210.5 to 211 °C.

For the molecule `CN(CC(=O)O)C(=O)CCc1cccc(-c2nc(=O)c3ccccc3s2)n1` [Example 314, (Methyl{3-[6-(4-oxo-4H-1,3-benzothiazin-2-yl)-2-pyridyl]propanoyl}amino)acetic acid], the melting point was 194.5 to 194.8 °C.

The molecule `CCOC(=O)C(C)Cc1cccc(-c2nc(=O)c3ccccc3s2)n1` (centres unmarked) [Example 315, Ethyl 2-methyl-3-[6-(4-oxo-4H-1,3-benzothiazin-2-yl)-2-pyridyl]propionate] yielded a melting point of 120.2 to 120.7 °C.

Consider `O=c1nc(-c2cc(CCc3nnn[nH]3)ccn2)sc2ccccc12` [Example 316, 2-{4-[2-(1H-1,2,3,4-Tetrazol-5-yl)ethyl]-2-pyridyl}-4H-1,3-benzothiazine-4-one], for which the melting point is 250 °C (dec.).

Take `N#CCCc1ccnc(-c2nc(=O)c3ccccc3s2)c1` [Example 317, 3-[2-(4-Oxo-4H-1,3-benzothiazin-2-yl)-4-pyridyl]propionitrile]: the melting point was 178.3 to 179 °C.

Regarding `CCOC(=O)C(C)Cc1ccnc(-c2nc(=O)c3ccccc3s2)c1` (centres unmarked) [Example 318, Ethyl 2-methyl-3-[2-(4-oxo-4H-1,3-benzothiazin-2-yl)-4-pyridyl]propionate], the melting point is 120.3 to 120.7 °C.

For `Cc1cc(CCC(=O)OC(C)(C)C)cc(-c2nc(=O)c3ccccc3s2)n1` [Example 319, tert-Butyl 3-[2-methyl-6-(4-oxo-4H-1,3-benzothiazin-2-yl)-4-pyridyl]propanoate], the melting point lay in the range of 129.4 to 130.5 °C.

`Cc1cc(CCC(=O)OC(C)(C)C)cc(-c2nc(=O)c3ccc(Cl)cc3s2)n1` [Example 320, tert-Butyl 3-[2-(7-chloro-4-oxo-4H-1,3-benzothiazin-2-yl)-6-methyl-4-pyridyl]propanoate] yielded a melting point of 186.4 to 187.6 °C.

Molecule `Cc1cc(CCC(=O)O)cc(-c2nc(=O)c3ccccc3s2)n1` [Example 321, 3-[2-Methyl-6-(4-oxo-4H-1,3-benzothiazin-2-yl)-4-pyridyl]propionic acid] registered a melting point of 233.2 to 234.7 °C.

Take `Cc1cc(CCC(=O)O)cc(-c2nc(=O)c3ccc(Cl)cc3s2)n1` [Example 322, 3-[2-(7-Chloro-4-oxo-4H-1,3-benzothiazin-2-yl)-6-methyl-4-pyridyl]propionic acid]: the melting point was 273.5 °C (dec.).

For `CC(C)(C)OC(=O)CN1CCN(c2ccnc(-c3nc(=O)c4ccccc4s3)c2)C1=O` [Example 323, tert-Butyl [2-oxo-3-[2-(4-oxo-4H-1,3-benzothiazin-2-yl)-4-pyridyl]-1-imidazolidinyl]acetate], the melting point lay in the range of 192.3 to 194 °C.

For the molecule `O=C(O)CN1CCN(c2ccnc(-c3nc(=O)c4ccccc4s3)c2)C1=O` [Example 324, [2-Oxo-3-[2-(4-oxo-4H-1,3-benzothiazin-2-yl)-4-pyridyl]-1-imidazolidinyl]acetic acid], the melting point was 271 to 273 °C.

For the molecule `CCN1CCN(c2ccnc(-c3nc(=O)c4ccccc4s3)c2)C1=O` [Example 325, 2-[4-(3-Ethyl-2-oxo-1-imidazolidinyl)-2-pyridyl]-4H-1,3-benzothiazine-4-one], the melting point fell in the range of 211.5 to 213 °C.

As to `O=c1cccc(-c2nc(=O)c3ccccc3s2)[nH]1` [Example 326, 2-(6-Oxo-1,6-dihydro-2-pyridyl)-4H-1,3-benzothiazine-4-one], the melting point is 214.2 to 215.3 °C.

`CC(C)(C)OC(=O)CCc1ccc(-c2nc(=O)c3ccccc3s2)nc1` [Example 327, tert-Butyl 3-[6-(4-oxo-4H-1,3-benzothiazin-2-yl)-3-pyridyl]propanoate] displayed a melting point of 160 to 161 °C.

`O=C(O)CCc1ccc(-c2nc(=O)c3ccccc3s2)nc1` [Example 328, 3-[6-(4-Oxo-4H-1,3-benzothiazin-2-yl)-3-pyridyl]propionic acid]: the melting point fell in the range of 232.2 to 232.4 °C.

For the molecule `NC(=O)CCc1ccc(-c2nc(=O)c3ccccc3s2)nc1` [Example 329, 3-[6-(4-Oxo-4H-1,3-benzothiazin-2-yl)-3-pyridyl]propanamide], the melting point is 247.5 to 247.8 °C.

`NC(=O)CCc1cccc(-c2nc(=O)c3ccccc3s2)n1` [Example 330, 3-[6-(4-Oxo-4H-1,3-benzothiazin-2-yl)-2-pyridyl]propanamide] gave a melting point of 236.3 to 236.5 °C.

With `NC(=O)CCc1ccnc(-c2nc(=O)c3ccccc3s2)c1` [Example 331, 3-[6-(4-Oxo-4H-1,3-benzothiazin-2-yl)-4-pyridyl]propanamide], the melting point is 237 to 239.7 °C.

With `CC(C)(C)OC(=O)CCOCCc1cccc(-c2nc(=O)c3ccccc3s2)n1` [Example 334, tert-Butyl 3-[2-(6-(4-oxo-4H-1,3-benzothiazin-2-yl)-2-pyridyl)ethoxy]propanoate], the melting point was in the range of 67.7 to 68.5 °C.

Regarding `O=C(O)CCOCCc1cccc(-c2nc(=O)c3ccccc3s2)n1` [Example 335, 3-[2-(6-(4-Oxo-4H-1,3-benzothiazin-2-yl)-2-pyridyl)ethoxy]propionic acid], the melting point lay in the range of 236.6 to 236.7 °C.

In turn, `CC(C)(C)OC(=O)CCOCc1cccc(-c2nc(=O)c3ccccc3s2)n1` [Example 336, tert-Butyl 3-[(6-(4-oxo-4H-1,3-benzothiazin-2-yl)-2-pyridyl)methoxy]propanoate] returned a melting point of 84.7 to 84.9 °C.

The molecule `O=C(O)CCOCc1cccc(-c2nc(=O)c3ccccc3s2)n1` [Example 337, 3-[(6-(4-oxo-4H-1,3-benzothiazin-2-yl)-2-pyridyl)methoxy]propionic acid] came in with a melting point of 176.6 to 176.7 °C.

Turning to `Cc1cccc2c(=O)nc(-c3cccc(CCC(=O)OC(C)(C)C)n3)sc12` [Example 338, tert-Butyl 3-[6-(8-methyl-4-oxo-4H-1,3-benzothiazin-2-yl)-2-pyridyl]propanoate], the melting point is 109.9 to 110 °C.

Turning to `N#Cc1nc(-c2nc(=O)c3ccccc3s2)ccc1CCC(=O)O` [Example 340, 3-[2-Cyano-6-(4-oxo-4H-1,3-benzothiazin-2-yl)-3-pyridyl]propanoate], the melting point is 283.8 °C (dec.).

Take `CSc1cc(CCC(=O)OC(C)(C)C)cc(-c2nc(=O)c3ccccc3s2)n1` [Example 341, tert-Butyl 3-[2-(methylthio)-6-(4-oxo-4H-1,3-benzothiazin-2-yl)-4-pyridyl]propanoate]: the melting point lay in the range of 125.5 to 126.5 °C.

The molecule `CSc1cc(CCC(=O)O)cc(-c2nc(=O)c3ccccc3s2)n1` [Example 342, 3-[2-(Methylthio)-6-(4-oxo-4H-1,3-benzothiazin-2-yl)-4-pyridyl]propionic acid] gave a melting point of 235.5 to 236.5 °C.

In turn, `C[S+]([O-])c1cc(CCC(=O)OC(C)(C)C)cc(-c2nc(=O)c3ccccc3s2)n1` (centres unmarked) [Example 343, tert-Butyl 3-[2-(methylsulfinyl)-6-(4-oxo-4H-1,3-benzothiazin-2-yl)-4-pyridyl]propanoate] displayed a melting point of 219.5 to 220 °C.

In turn, `C[S+]([O-])c1cc(CCC(=O)O)cc(-c2nc(=O)c3ccccc3s2)n1` (centres unmarked) [Example 344, 3-[2-(methylsulfinyl)-6-(4-oxo-4H-1,3-benzothiazin-2-yl)-4-pyridyl]propionic acid] came in with a melting point of 265.5 to 266 °C.

These data come from patent US7767665B2, “1,3-benzothiazinone derivatives and use thereof” (Takeda Pharmaceutical Company Limited, priority 2001, dated 2010).
